In patent US20040167162A1, “Uses for anti-malarial therapeutic agents” (priority 2001, published 2004):
Where a name gives a salt, the structure may show the parent alone. Read-outs that look alike come from different tables or passages of the source.

Tests used:
adenovirus = conditions: cited from earlier work
influenza viruses = conditions: cited from earlier work
human corona virus = conditions: cited from earlier work
rhinovirus [1] = conditions: in particular human tracheal epithelial cells, rhinovirus group 14; cited from earlier work
ICAM-1 = conditions: treated cells; cited from earlier work
rhinovirus [2] = experiment: Blocking of rhinovirus infection of epithelial cells; effective inhibitory concentrations (Tables 1 and 2, FIG. 3); type: cell-based
Source text: (§1) Rhinovirus capable of viral replication causes the release of the pro-inflammatory […] chemokines, IP-10 and RANTES from infected epithelial cells.
(§2) For purposes of illustration, the effects of targeted delivery as opposed to systemic delivery of a representative anti-malarial, hydroxychloroquine, for prevention of rhinovirus infection is compared. As shown in Tables 1 and 2 and in FIG. 3, the effective inhibitory concentrations of this agent ranges from about 50 to 1000 microM (or about 20 to 400 micrograms/ml). Safe oral dosing of anti-malarials, such as chloroquine and hydroxychloroquine yields serum levels far below these ranges: 0.6 to 0.9 microM for chloroquine and 1.4 to 1.5 microM for hydroxychloroquine (MacKenzie, A H, “Pharmacologic actions of the 4-aminoquinoline compounds”, Am J Med, 1983, July: 5-10). Moreover, the inventor has noted that oral or systemic administration of HCQ cannot provide adequate plasma levels of HCQ to achieveefficacious results. Even at doses nearly twice that used in humans, peak serum concentrations following intravenous of administration of 10 mg/kg HCQ in rats was only 2 mcg/ml (FIG. 4); in dogs, peak whole blood concentrations were less than 3 mcg/ml (FIG. 5).

[3] = cited from earlier work
IP-10/RANTES = experiment: Effect of HCQ on IP-10/RANTES production in primary human epithelial cells with exposure to HRV-16; type: cell-based
Source text: FIG. 1 graphically depicts the effect of 50 μm HCQ in the elaboration of IP-10 and RANTES in primary human epithelial cells with exposure to human rhinovirus type 16.
as §1
(§3) For example, treatment with hydroxychloroquine blocks the elaboration of the pro-inflammatory chemokines, IP-10 and RANTES from both primary tonsillar and immortalized epithelial cell lines (Table 1 & 2, FIG. 1 & 2). Since these chemokines figure prominently in generation of inflammatory responses and symptoms, this effect has important therapeutic implications.

IP-10 and RANTES = experiment: HCQ preincubation of BEAS-2B epithelial cells exposed to HRV-16, assayed for IP-10 and RANTES; type: cell-based, human; conditions: for IP-10: 6 hours preincubation / IP-10: 24 hours preincubation / RANTES: 6 hours preincubation: BEAS-2B
Method: FIG. 2 depicts graphically the effect of varying concentrations of HCQ preincubation on the elaboration of […] and RANTES in BEAS-2B epithelial cells exposed to human rhinovirus-16.
as §1, §3

Eosinophil = Eosinophil total superoxide production (FIG. 3); type: cell-based
Source text: FIG. 3 graphically depicts the effect of HCQ on Eosinophil total Superoxide production. In FIG. 3, nil refers to control, i.e., the absence of HCQ; PMA refers to phorbol myristic acetate; PAF refers to platelet activating factor, and SE refers to standard error of the mean. The data in FIG. 3 are presented as means±SE; n=3. The * indicates p<0.05; ** indicates p<0.01.
Anti-malarial agents also block the secondary aspects of rhinovirus infections. Without wishing to be bound, it is believed that they are inhibit by blocking the secondary events of viral infections.

[4] = design: species or system rats; conditions: rat, in vivo, iv, 10 mg/kg
Source text: FIG. 4 graphically depicts the mean whole blood concentration of HCQ following single day intravenous doses to male and female rats.
as §2

[5] = design: species or system dogs; conditions: dog, in vivo, iv
Source text: FIG. 5 graphically depicts the mean whole blood concentration of HCQ following single day intravenous doses to male and female dogs.
as §2

[6] = tested on: antigen-induced early (EAR) and late airway responses (LAR) and airway hyperresponsiveness (AHR); conditions: aerosolized; total dose of only 10 mg/d; cited from earlier work
asthma = conditions: oral; cited from earlier work
[7] = in vivo, po; cited from earlier work

Cl.N [ammonium chloride]
cellular infection by adenovirus (adenovirus): block cellular infection
cellular infection by influenza viruses (influenza viruses): block cellular infection
infection of human corona virus (human corona virus): block infection

CO/C1=C\C(C)=C\[C@@H](C)[C@@H](O)[C@@H](C)C/C(C)=C/C=C/[C@H](OC)[C@@H]([C@@H](C)[C@@H](O)[C@H](C)[C@@]2(O)C[C@@H](O)[C@H](C)[C@@H](C(C)C)O2)OC1=O [bafilomycin A1]
cellular infection by adenovirus (adenovirus): block cellular infection
cellular infection by influenza viruses (influenza viruses): block cellular infection
infection of human corona virus (human corona virus): block infection
infection by rhinovirus (rhinovirus [1]): inhibit infection
expression of ICAM-1 (ICAM-1): reduces expression

CCN(CC)CCCC(C)Nc1ccnc2cc(Cl)ccc12 (stereo not shown) [chloroquine]
rhinovirus infection of epithelial cells (rhinovirus [2]): block rhinovirus infection
cellular infection by adenovirus (adenovirus): block cellular infection
cellular infection by influenza viruses (influenza viruses): block cellular infection

CCN(CCO)CCCC(C)Nc1ccnc2cc(Cl)ccc12 (stereo not shown) [hydroxychloroquine sulfate]
solubility in water [3]: readily soluble in water

hydroxychloroquine [HCQ]
IP-10: hours of preincubation 24 (IP-10/RANTES; HRV-16 + 50 microM HCQ, 24 hours of preincubation, primary human epithelial cells): 31 pg/mL
IP-10: hours of preincubation 48 (IP-10/RANTES; HRV-16 + 50 microM HCQ, 48 hours of preincubation, primary human epithelial cells): 112 pg/mL
RANTES: hours of preincubation 48 (IP-10/RANTES; HRV-16 + HCQ, 48 hours of preincubation, primary human epithelial cells): 509 pg/mL
release of pro-inflammatory CXC chemokines (IP-10/RANTES; primary epithelial cells treated, then infected with RV): do not release
IP-10: 6 hours preincubation (IP-10 and RANTES; HRV-16 + 0.01 μM HCQ): 3084 pg/mL
IP-10: 24 hours preincubation (IP-10 and RANTES; HRV-16 + 0.01 μM HCQ): 2506 pg/mL
RANTES: 6 hours preincubation (IP-10 and RANTES; HRV-16 + 0.01 μM HCQ): 3326 pg/mL
IP-10: 6 hours preincubation (IP-10 and RANTES; HRV-16 + 0.1 μM HCQ): 2914 pg/mL
IP-10: 24 hours preincubation (IP-10 and RANTES; HRV-16 + 0.1 μM HCQ): 1814 pg/mL
RANTES: 6 hours preincubation (IP-10 and RANTES; HRV-16 + 0.1 μM HCQ): 3128 pg/mL
IP-10: 6 hours preincubation (IP-10 and RANTES; HRV-16 + 1 μM HCQ): 3045 pg/mL
IP-10: 24 hours preincubation (IP-10 and RANTES; HRV-16 + 1 μM HCQ): 2098 pg/mL
RANTES: 6 hours preincubation (IP-10 and RANTES; HRV-16 + 1 μM HCQ): 1994 pg/mL
IP-10: 6 hours preincubation (IP-10 and RANTES; HRV-16 + 50 μM HCQ): 31 pg/mL
IP-10: 24 hours preincubation (IP-10 and RANTES; HRV-16 + 50 μM HCQ): 31 pg/mL
RANTES: 6 hours preincubation (IP-10 and RANTES; HRV-16 + 50 μM HCQ): 0 pg/mL
release of pro-inflammatory CXC chemokines (IP-10 and RANTES; pre-incubation of immortalized epithelial cells (BEAS-2B)): has the same effect
concentration at which IL-5 or PAF induced eosinophil superoxide is inhibited (Eosinophil): at least 0.5 mM
concentration at which IL-5 or PAF induced eosinophil superoxide is inhibited (Eosinophil; conversion of the mM value): about 200 mcg/ml
rhinovirus infection of epithelial cells (rhinovirus [2]): block rhinovirus infection
peak serum concentrations [4]: 2 µg/mL
peak whole blood concentrations [5]: less than 3 mcg/ml
effect in asthmatic sheep [6]: therapeutic effects
time of treatment after which therapeutic effect begins (asthma): > 22 weeks
serum levels [7]: 1400 to 1500 nM
